For two compounds, inhibition results are on record in PubChem BioAssay AID1922 (Vanderbilt High Throughput Screening Facility, 2009).

For this assay, the target named is ATP-sensitive inward rectifier potassium channel 1 (Homo sapiens) (UniProt P48048). As to the kind of experiment: PubChem AID 1922. The note with it: HEK-293 ROMK whole-cell patch clamp, % block, stronger effect = higher value. On the technique in general: Patch clamp records ionic current or voltage across a cell membrane.
Chain of ATP-sensitive inward rectifier potassium channel 1 (Homo sapiens) (P48048 whole entry, looked up): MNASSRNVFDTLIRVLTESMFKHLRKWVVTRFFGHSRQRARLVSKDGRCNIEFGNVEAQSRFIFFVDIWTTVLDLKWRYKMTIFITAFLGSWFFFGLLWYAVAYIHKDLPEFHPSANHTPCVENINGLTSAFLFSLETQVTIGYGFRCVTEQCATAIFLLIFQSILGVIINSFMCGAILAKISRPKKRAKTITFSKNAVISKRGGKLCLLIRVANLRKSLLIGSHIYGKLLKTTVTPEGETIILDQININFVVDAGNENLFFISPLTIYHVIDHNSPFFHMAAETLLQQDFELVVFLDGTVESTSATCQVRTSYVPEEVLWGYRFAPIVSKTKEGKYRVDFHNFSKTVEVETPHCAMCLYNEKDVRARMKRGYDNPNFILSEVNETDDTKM

Usually inhibition stands for the relative decrease from the control value, in per cent. In the case of `O=[N+]([O-])c1ccc(CN2CCOCCOCCN(Cc3ccc([N+](=O)[O-])cc3)CCOCC2)cc1`, the inhibition runs as follows: (ROMK block, at 1 µM) 63.4%; (ROMK block, at 3 µM) 78.2%; (at 10 µM) 95.3%.

For `O=[N+]([O-])c1ccc2nc(COCc3nc4ccc([N+](=O)[O-])cc4[nH]3)[nH]c2c1`, the inhibition reads like this: (ROMK block, at 1 µM) 62.6%; (ROMK block, at 3 µM) 78.3%; (at 10 µM) 88.7%.
